# Where a name gives a salt, the structure may show the parent alone.
# What was measured:
# [1] = system: RAW264.7 immortalized murine macrophages; test: TNFα secretion assay (LPS-induced, ELISA); assay type: cell-based; conditions: RAW264.7 cells, 4 hrs
# Experimental: The TNFα assay quantifies secreted TNFα from RAW264.7 immortalized murine macrophages as an indicator of inflammation. The cells were concurrently treated with LPS (as an inducer of inflammation) and a titration of test molecules or control compounds for 4 hrs. After the incubation period, the media was harvested and assayed via an ELISA assay. ODs of experimental samples are fit to those of a standard curve to extrapolate the TNFα concentration. IC50 values were calculated by fitting a curve to experimental values with the controls as the top and bottom limits of the curve. Selected compounds provided herein were subjected to this assay.
# ROCK2 = ROCK2 (Homo sapiens (Human), UniProt O75116); test: Kinase assay ROCK2; assay type: biochemical; conditions: HCl salt
# Experimental: (§1) Inhibition of various kinases was assayed.
# ROCK1 = ROCK1 (Homo sapiens (Human), UniProt Q13464); test: Kinase assay ROCK1; assay type: biochemical; conditions: HCl salt
# Experimental: as §1
# PKA = PKA (Homo sapiens, UniProt P17612); test: Kinase assay PKA; assay type: biochemical; conditions: HCl salt
# Experimental: as §1
# JAK1 = JAK1 (Homo sapiens (Human), UniProt P23458); test: Kinase assay JAK1; assay type: biochemical; conditions: HCl salt
# Experimental: as §1
# JAK2 = JAK2 (Homo sapiens (Human), UniProt O60674); test: Kinase assay JAK2; assay type: biochemical; conditions: HCl salt
# JAK3 = JAK3 (Homo sapiens (Human), UniProt P52333); test: Kinase assay JAK3; assay type: biochemical; conditions: HCl salt
# Experimental: as §1
# TYK2 = TYK2 (Homo sapiens (Human), UniProt P29597); test: Kinase assay TYK2; assay type: biochemical; conditions: HCl salt
# Experimental: as §1
# IKKb = IKKb (Homo sapiens (Human), UniProt O14920); test: Kinase assay IKKb; assay type: biochemical; conditions: HCl salt
# Experimental: as §1
# PKCh = PKCh (Homo sapiens (Human), UniProt P24723); test: Kinase assay PKCh; assay type: biochemical; conditions: HCl salt
# Experimental: as §1
# PKCd = PKCd (Homo sapiens (Human), UniProt Q05655); test: Kinase assay PKCd; assay type: biochemical; conditions: HCl salt
# Experimental: as §1
# PKCe = PKCe (Homo sapiens (Human), UniProt Q02156); test: Kinase assay PKCe; assay type: biochemical; conditions: HCl salt
# Experimental: as §1
# AKT1 = AKT1 (Homo sapiens (Human), UniProt P31749); test: Kinase assay AKT1; assay type: biochemical; conditions: HCl salt
# Experimental: as §1
# PTM = PTM assay; assay type: cell-based; conditions: HCl salt
# Experimental: as §1
# HTM = HTM assay; assay type: cell-based; conditions: HCl salt
# Experimental: as §1
# in vitro = assay type: cell-based
# NFkB = NFkB assay; assay type: cell-based; conditions: HCl salt
# Experimental: as §1
# TYK2, sequence (P29597 whole entry, species assumed): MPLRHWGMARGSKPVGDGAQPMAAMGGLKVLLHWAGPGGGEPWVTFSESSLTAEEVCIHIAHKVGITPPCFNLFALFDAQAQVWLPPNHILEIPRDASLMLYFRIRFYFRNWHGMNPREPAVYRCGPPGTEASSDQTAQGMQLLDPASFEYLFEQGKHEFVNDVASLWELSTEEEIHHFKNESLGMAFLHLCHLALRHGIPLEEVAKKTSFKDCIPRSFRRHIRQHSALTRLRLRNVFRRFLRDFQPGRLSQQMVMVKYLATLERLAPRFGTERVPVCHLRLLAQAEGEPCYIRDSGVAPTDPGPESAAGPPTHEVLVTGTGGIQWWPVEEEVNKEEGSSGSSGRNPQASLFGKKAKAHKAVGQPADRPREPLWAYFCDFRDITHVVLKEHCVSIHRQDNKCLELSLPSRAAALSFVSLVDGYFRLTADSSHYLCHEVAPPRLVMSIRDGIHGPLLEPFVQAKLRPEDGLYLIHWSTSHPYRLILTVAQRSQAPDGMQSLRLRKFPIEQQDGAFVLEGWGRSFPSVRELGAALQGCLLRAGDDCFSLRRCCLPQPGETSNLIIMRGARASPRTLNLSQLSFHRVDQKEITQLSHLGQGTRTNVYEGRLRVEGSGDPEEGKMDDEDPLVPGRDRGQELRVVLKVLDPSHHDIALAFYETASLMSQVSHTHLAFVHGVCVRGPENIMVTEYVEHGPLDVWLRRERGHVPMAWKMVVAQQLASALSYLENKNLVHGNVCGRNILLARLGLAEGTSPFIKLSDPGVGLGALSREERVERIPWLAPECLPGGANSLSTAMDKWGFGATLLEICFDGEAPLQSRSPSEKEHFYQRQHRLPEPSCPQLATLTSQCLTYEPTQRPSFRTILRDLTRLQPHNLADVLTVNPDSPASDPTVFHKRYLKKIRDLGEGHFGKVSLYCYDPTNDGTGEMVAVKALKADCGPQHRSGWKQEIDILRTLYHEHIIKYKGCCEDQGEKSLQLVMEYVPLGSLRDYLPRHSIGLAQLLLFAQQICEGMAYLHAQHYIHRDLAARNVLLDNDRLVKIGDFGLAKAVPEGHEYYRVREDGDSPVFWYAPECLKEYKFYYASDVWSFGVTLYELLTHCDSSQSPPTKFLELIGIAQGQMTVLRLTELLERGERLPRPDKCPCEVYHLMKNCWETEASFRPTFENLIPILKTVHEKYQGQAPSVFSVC
# JAK3, sequence (P52333 whole entry, species assumed): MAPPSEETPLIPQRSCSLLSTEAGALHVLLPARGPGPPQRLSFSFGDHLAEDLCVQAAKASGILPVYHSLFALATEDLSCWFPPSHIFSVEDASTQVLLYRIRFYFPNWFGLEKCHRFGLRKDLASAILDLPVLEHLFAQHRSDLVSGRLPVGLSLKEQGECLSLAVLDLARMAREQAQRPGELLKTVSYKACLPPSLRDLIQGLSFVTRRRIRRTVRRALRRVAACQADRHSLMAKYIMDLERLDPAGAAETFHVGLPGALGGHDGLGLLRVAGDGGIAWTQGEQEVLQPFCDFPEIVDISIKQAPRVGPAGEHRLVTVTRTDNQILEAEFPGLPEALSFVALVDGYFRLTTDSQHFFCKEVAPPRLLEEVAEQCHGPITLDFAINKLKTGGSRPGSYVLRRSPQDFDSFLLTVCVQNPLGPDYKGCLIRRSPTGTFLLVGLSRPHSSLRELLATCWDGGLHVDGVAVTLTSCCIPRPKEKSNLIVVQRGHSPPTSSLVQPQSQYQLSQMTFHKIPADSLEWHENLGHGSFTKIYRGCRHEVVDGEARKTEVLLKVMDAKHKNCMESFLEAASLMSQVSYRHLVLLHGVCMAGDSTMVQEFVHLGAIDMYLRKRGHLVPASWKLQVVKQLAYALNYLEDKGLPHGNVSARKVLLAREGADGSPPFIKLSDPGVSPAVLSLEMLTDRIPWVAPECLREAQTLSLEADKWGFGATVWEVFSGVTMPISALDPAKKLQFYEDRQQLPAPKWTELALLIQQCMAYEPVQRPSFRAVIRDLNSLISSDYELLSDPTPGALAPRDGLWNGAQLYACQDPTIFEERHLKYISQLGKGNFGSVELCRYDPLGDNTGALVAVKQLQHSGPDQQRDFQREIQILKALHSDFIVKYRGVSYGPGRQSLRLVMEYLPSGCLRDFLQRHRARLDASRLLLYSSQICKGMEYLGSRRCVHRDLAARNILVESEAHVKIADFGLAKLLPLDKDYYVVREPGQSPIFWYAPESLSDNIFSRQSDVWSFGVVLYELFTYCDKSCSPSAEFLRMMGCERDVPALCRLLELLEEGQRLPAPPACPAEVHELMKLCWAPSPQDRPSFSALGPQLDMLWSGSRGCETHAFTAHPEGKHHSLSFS
# AKT1, sequence (P31749 whole entry, species assumed): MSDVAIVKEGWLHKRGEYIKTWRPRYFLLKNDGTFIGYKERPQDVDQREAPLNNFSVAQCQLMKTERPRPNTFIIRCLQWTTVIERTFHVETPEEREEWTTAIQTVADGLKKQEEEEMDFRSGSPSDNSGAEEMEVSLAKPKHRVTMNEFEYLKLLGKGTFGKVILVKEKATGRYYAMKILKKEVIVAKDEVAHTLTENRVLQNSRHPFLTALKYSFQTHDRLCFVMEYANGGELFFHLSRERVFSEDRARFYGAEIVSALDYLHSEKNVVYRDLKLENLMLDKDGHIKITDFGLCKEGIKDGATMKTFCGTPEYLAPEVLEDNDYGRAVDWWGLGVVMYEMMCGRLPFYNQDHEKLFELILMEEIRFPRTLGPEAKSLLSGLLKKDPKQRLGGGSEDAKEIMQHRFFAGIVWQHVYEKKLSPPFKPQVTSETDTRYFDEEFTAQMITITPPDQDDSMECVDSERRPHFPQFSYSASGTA
# PKCd, sequence (Q05655 whole entry, species assumed): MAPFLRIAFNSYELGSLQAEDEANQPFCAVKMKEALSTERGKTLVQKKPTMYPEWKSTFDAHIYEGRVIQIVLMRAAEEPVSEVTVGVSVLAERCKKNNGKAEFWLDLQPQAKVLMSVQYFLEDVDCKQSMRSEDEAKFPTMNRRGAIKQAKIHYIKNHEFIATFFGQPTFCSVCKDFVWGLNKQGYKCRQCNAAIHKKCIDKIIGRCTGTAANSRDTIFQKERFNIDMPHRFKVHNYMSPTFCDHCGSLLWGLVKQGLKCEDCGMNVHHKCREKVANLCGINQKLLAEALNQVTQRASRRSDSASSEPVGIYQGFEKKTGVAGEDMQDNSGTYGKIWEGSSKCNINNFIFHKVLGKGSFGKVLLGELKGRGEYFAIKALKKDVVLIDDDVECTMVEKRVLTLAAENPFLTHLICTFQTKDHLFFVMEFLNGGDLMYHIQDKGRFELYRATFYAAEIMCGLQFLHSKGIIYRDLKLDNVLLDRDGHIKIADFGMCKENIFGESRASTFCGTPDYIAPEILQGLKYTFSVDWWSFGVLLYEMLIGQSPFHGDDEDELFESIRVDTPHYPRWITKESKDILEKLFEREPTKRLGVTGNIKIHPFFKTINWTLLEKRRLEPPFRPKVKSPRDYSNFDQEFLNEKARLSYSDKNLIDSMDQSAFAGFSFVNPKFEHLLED
# ROCK2, sequence (O75116 whole entry, species assumed): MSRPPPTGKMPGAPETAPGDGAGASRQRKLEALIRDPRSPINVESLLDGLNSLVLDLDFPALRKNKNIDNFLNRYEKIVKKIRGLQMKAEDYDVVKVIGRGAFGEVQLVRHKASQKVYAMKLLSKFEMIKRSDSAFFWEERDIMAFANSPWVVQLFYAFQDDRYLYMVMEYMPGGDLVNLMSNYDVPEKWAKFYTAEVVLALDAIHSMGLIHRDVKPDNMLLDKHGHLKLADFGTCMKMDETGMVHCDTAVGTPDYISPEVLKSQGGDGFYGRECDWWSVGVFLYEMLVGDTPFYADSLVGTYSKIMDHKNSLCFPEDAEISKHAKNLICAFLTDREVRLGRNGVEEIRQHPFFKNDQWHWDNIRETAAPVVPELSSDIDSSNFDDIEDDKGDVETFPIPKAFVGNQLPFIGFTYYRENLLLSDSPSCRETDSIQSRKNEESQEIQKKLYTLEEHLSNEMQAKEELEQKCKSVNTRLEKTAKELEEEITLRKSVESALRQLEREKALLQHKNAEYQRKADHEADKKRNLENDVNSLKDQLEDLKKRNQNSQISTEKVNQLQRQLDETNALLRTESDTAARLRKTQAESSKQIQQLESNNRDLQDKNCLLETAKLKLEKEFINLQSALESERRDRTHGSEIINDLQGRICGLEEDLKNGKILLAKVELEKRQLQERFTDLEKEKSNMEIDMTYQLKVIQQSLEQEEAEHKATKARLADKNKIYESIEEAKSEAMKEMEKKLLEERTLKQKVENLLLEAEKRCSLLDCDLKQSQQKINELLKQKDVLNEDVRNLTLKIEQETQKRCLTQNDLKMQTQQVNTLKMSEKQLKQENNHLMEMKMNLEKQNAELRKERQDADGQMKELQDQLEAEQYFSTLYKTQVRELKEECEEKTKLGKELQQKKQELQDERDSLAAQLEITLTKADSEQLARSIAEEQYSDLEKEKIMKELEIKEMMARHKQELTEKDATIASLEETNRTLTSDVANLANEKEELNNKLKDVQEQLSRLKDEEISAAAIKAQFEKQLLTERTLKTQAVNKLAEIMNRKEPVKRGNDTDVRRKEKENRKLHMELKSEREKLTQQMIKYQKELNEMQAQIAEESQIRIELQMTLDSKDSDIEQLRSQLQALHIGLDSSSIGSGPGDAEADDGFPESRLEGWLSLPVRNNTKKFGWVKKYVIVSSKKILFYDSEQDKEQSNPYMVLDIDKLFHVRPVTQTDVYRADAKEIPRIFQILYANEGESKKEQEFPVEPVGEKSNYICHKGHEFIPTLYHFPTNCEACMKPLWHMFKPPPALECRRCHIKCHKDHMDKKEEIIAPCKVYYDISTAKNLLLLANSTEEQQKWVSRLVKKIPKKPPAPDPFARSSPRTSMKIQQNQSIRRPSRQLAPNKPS
smiles,measurement,setting,value
C[C@@H]1C[C@H]2[C@@H]3CCC4=CC(=O)C=C[C@]4(C)[C@@]3(F)[C@@H](O)C[C@]2(C)[C@@]1(O)C(=O)COC(=O)CCC(=O)OCCc1ccc(C(CN)C(=O)Nc2ccc3cnccc3c2)cc1 (some centres unmarked) [Example 26],IC50,[1]; Mus musculus,227 nM
C[C@@H]1C[C@H]2[C@@H]3CCC4=CC(=O)C=C[C@]4(C)[C@@]3(F)[C@@H](O)C[C@]2(C)[C@@]1(O)C(=O)COC(=O)C1CC1C(=O)OCCc1ccc(C(CN)C(=O)Nc2ccc3cnccc3c2)cc1 (some centres unmarked) [Example 37],IC50,[1]; Mus musculus,3100 nM
C[C@@H]1C[C@H]2[C@@H]3CCC4=CC(=O)C=C[C@]4(C)[C@@]3(F)[C@@H](O)C[C@]2(C)[C@@]1(O)C(=O)COC(=O)C1CC1C(=O)OCc1ccc([C@@H](CN)C(=O)Nc2ccc3cnccc3c2)cc1 (some centres unmarked) [Example 27],IC50,ROCK2,13 nM
same,IC50,ROCK1,29 nM
same,IC50,PKA,317 nM
same,IC50,JAK1,50000 nM
same,IC50,JAK2,41700 nM
same,IC50,JAK3,11600 nM
same,IC50,TYK2,50000 nM
same,IC50,IKKb,46800 nM
same,IC50,PKCh,331 nM
same,IC50,PKCd,509 nM
same,IC50,PKCe,3460 nM
same,IC50,AKT1,2640 nM
same,IC50,PTM,145 nM
same,IC50,HTM,6 nM
same,IC50,in vitro,100000 nM
same,IC50,NFkB,1790 nM
"C[C@@H]1C[C@H]2[C@@H]3CCC4=CC(=O)C=C[C@]4(C)[C@@]3(F)[C@@H](O)C[C@]2(C)[C@@]1(O)C(=O)COC(=O)C[C@H](N)C(=O)OCc1ccc([C@@H](CN)C(=O)Nc2ccc3cnccc3c2)cc1 [Example 83, 1-(4-((S)-3-amino-1-(isoquinolin-6-ylamino)-1-oxopropan-2-yl)benzyl) 4-(2-((8S,9R,10S,11S,13S,14S,16R,17R)-9-fluoro-11,17-dihydroxy-10,13,16-trimethyl-3-oxo-6,7,8,9,10,11,12,13,14,15,16,17-dodecahydro-3H-cyclopenta[a]phenanthren-17-yl)-2-oxoethyl) L-aspartate trihydrochloride]",IC50,ROCK2,9 nM
same,IC50,ROCK1,11 nM
same,IC50,PKA,29 nM
same,IC50,JAK1,34700 nM
same,IC50,JAK2,22000 nM
same,IC50,JAK3,7730 nM
same,IC50,TYK2,50000 nM
same,IC50,IKKb,19200 nM
same,IC50,PKCh,51 nM
same,IC50,PKCd,56 nM
same,IC50,PKCe,154 nM
same,IC50,AKT1,95 nM
same,IC50,PTM,43 nM
same,IC50,HTM,25 nM
same,IC50,in vitro,100000 nM
same,IC50,NFkB,55 nM
CN(C)C(C(=O)Nc1ccc2cnccc2c1)c1ccc(COC(=O)CCC(=O)OCC(=O)[C@@]2(O)CC[C@H]3[C@@H]4CCC5=CC(=O)C=C[C@]5(C)[C@H]4[C@@H](O)C[C@@]32C)cc1 (some centres unmarked) [Example 21],IC50,[1]; Mus musculus,1650 nM
C[C@@H]1C[C@H]2[C@@H]3CCC4=CC(=O)C=C[C@]4(C)[C@@]3(F)[C@@H](O)C[C@]2(C)[C@@]1(O)C(=O)COC(=O)CCC(=O)OCc1ccc(C(C(=O)Nc2ccc3cnccc3c2)N(C)C)cc1 (some centres unmarked) [Example 20],IC50,[1]; Mus musculus,144 nM
CC(C)(C)OC(=O)NCC(C(=O)Nc1ccc2cnccc2c1)c1ccc(CCOC(=O)CCC(=O)OCC(=O)[C@@]23OC(C)(C)O[C@@H]2C[C@H]2[C@@H]4C[C@H](F)C5=CC(=O)C=C[C@]5(C)[C@@]4(F)[C@@H](O)C[C@@]23C)cc1 (some centres unmarked) [Example 31],IC50,[1]; Mus musculus,5460 nM
"C[C@@H]1C[C@H]2[C@@H]3CCC4=CC(=O)C=C[C@]4(C)[C@@]3(F)[C@@H](O)C[C@]2(C)[C@@]1(O)C(=O)COC(=O)CCC(=O)OCc1ccc(C(CNC(=O)OC(C)(C)C)C(=O)Nc2ccc3cnccc3c2)cc1 (stereo partly drawn) [Example 4, 4-(3-((tert-butoxycarbonyl)amino)-1-(isoquinolin-6-ylamino)-1-oxopropan-2-yl)benzyl (2-((8S,9R,10S,11S,13S,14S,16R,17R)-9-fluoro-11,17-dihydroxy-10,13,16-trimethyl-3-oxo-6,7,8,9,10,11,12,13,14,15,16,17-dodecahydro-3H-cyclopenta[a]phenanthren-17-yl)-2-oxoethyl) succinate]",IC50,[1]; Mus musculus,230 nM
C[C@]12C=CC(=O)C=C1CC[C@@H]1[C@@H]2[C@@H](O)C[C@@]2(C)[C@H]1CC[C@]2(O)C(=O)COC(=O)C1CC1C(=O)OCc1ccc([C@@H](CN)C(=O)Nc2ccc3cnccc3c2)cc1 (some centres unmarked) [Example 19],IC50,ROCK2,27 nM
same,IC50,ROCK1,58 nM
same,IC50,PKA,332 nM
same,IC50,JAK1,9570 nM
same,IC50,JAK3,2570 nM
same,IC50,TYK2,50000 nM
same,IC50,IKKb,50000 nM
same,IC50,PKCh,436 nM
same,IC50,PKCd,589 nM
same,IC50,PKCe,4160 nM
same,IC50,AKT1,2540 nM
same,IC50,PTM,706 nM
same,IC50,NFkB,10000 nM
C[C@@H]1C[C@H]2[C@@H]3CCC4=CC(=O)C=C[C@]4(C)[C@@]3(F)[C@@H](O)C[C@]2(C)[C@@]1(O)C(=O)COC(=O)CCC(=O)OCc1ccc([C@@H](CN)C(=O)Nc2ccc3cnccc3c2)cc1 [Example 25],IC50,ROCK2,17 nM
same,IC50,ROCK1,25 nM
same,IC50,PKA,138 nM
same,IC50,JAK1,50000 nM
same,IC50,JAK2,40900 nM
same,IC50,JAK3,21400 nM
same,IC50,TYK2,50000 nM
same,IC50,IKKb,38500 nM
same,IC50,PKCh,173 nM
same,IC50,PKCd,225 nM
same,IC50,PKCe,1580 nM
same,IC50,AKT1,955 nM
same,IC50,PTM,295 nM
same,IC50,HTM,4.5 nM
same,IC50,in vitro,100000 nM
same,IC50,NFkB,39 nM
CN(C)C(C(=O)Nc1ccc2cnccc2c1)c1ccc(COC(=O)CCC(=O)OCC(=O)[C@@]23OC(C)(C)O[C@@H]2C[C@H]2[C@@H]4CCC5=CC(=O)C=C[C@]5(C)[C@@]4(F)[C@@H](O)C[C@@]23C)cc1 (some centres unmarked) [Example 28],IC50,[1]; Mus musculus,15.5 nM
C[C@@H]1C[C@H]2[C@@H]3CCC4=CC(=O)C=C[C@]4(C)[C@@]3(F)[C@@H](O)C[C@]2(C)[C@@]1(O)C(=O)COC(=O)CCC(=O)OCc1ccc(C(CCNC(=O)OC(C)(C)C)C(=O)Nc2ccc3cnccc3c2)cc1 (some centres unmarked) [Example 11],IC50,[1]; Mus musculus,429 nM
C[C@@H]1C[C@H]2[C@@H]3CCC4=CC(=O)C=C[C@]4(C)[C@@]3(F)[C@@H](O)C[C@]2(C)[C@@]1(O)C(=O)COC(=O)c1cccc([C@@H]2C[C@H]2C(=O)Nc2ccc3cnccc3c2F)c1 [Example 91],IC50,[1],102 nM
CC(C)(C)OC(=O)NC[C@@H](C(=O)Nc1ccc2cnccc2c1)c1ccc(COC(=O)CCC(=O)OCC(=O)[C@@]2(O)CC[C@H]3[C@@H]4CCC5=CC(=O)C=C[C@]5(C)[C@H]4[C@@H](O)C[C@@]32C)cc1 [Example 14],IC50,[1]; Mus musculus,620 nM
CC1(C)O[C@@H]2C[C@H]3[C@@H]4C[C@H](F)C5=CC(=O)C=C[C@]5(C)[C@@]4(F)[C@@H](O)C[C@]3(C)[C@]2(C(=O)COC(=O)CCC(=O)OCc2ccc([C@@H](CN)C(=O)Nc3ccc4cnccc4c3)cc2)O1 [Example 40],IC50,ROCK2,13 nM
same,IC50,ROCK1,19 nM
same,IC50,PKA,71 nM
same,IC50,JAK1,50000 nM
same,IC50,JAK3,17700 nM
same,IC50,TYK2,50000 nM
same,IC50,IKKb,32900 nM
same,IC50,PKCh,190 nM
same,IC50,PKCd,152 nM
same,IC50,PKCe,244 nM
same,IC50,AKT1,523 nM
same,IC50,PTM,217 nM
same,IC50,HTM,11 nM
same,IC50,NFkB,28 nM
CC(C)(C)OC(=O)NC[C@@H](C(=O)Nc1ccc2cnccc2c1)c1ccc(COC(=O)CCC(=O)OCC(=O)[C@@]23OC(C)(C)O[C@@H]2C[C@H]2[C@@H]4CCC5=CC(=O)C=C[C@]5(C)[C@@]4(F)[C@@H](O)C[C@@]23C)cc1 [Example 29],IC50,[1]; Mus musculus,71 nM
CN(C)C(C(=O)Nc1ccc2cnccc2c1)c1ccc(COC(=O)CCC(=O)OCC(=O)[C@@]23OC(C)(C)O[C@@H]2C[C@H]2[C@@H]4C[C@H](F)C5=CC(=O)C=C[C@]5(C)[C@@]4(F)[C@@H](O)C[C@@]23C)cc1 (some centres unmarked) [Example 23],IC50,[1]; Mus musculus,4.5 nM
C[C@@H]1C[C@H]2[C@@H]3CCC4=CC(=O)C=C[C@]4(C)[C@@]3(F)[C@@H](O)C[C@]2(C)[C@@]1(O)C(=O)COC(=O)CCC(=O)OCc1ccc(C(CCN)C(=O)Nc2ccc3cnccc3c2)cc1 (some centres unmarked) [Example 12],IC50,[1]; Mus musculus,90.5 nM
"C[C@@H]1C[C@H]2[C@@H]3CCC4=CC(=O)C=C[C@]4(C)[C@@]3(F)[C@@H](O)C[C@]2(C)[C@@]1(O)C(=O)COC(=O)c1cccc([C@@H]2C[C@H]2C(=O)Nc2ccc3cnccc3c2)c1 [Example 90, 2-((8S,9R,10S,11S,13S,14S,16R,17R)-9-fluoro-11,17-dihydroxy-10,13,16-trimethyl-3-oxo-6,7,8,9,10,11,12,13,14,15,16,17-dodecahydro-3H-cyclopenta[a]phenanthren-17-yl)-2-oxoethyl 3-((1R,2R)-2-(isoquinolin-6-ylcarbamoyl)cyclopropyl)benzoate]",IC50,[1]; Mus musculus,300 nM

# From US11059789B2, “Isoquinoline-steroid conjugates and uses thereof” (priority 2018, dated 2021)
